From patent US7572600B2, “Enzymatic activities in chemokine-mediated inflammation” (Chemocentryx, Inc., priority 2004, dated 2009) come the findings set out here.

Assay [1] has as its system monocyte-derived dendritic cells. Briefly: Calcium mobilization in monocyte-derived dendritic cells. It is filed as cell-based, human. The method, then:
Human monocytes were obtained from buffy coats purchased from the Stanford Blood Bank (Palo Alto, Calif.) by sedimentation on Ficoll-Paque (Amersham, Piscataway, N.J.) and selection with anti-CD14 magnetic beads (Miltenyi, Auburn, Calif.) according to the manufacturers' instructions. For generation of dendritic cells, monocytes were cultured for 6 days in RPMI-1640 medium containing 10% FBS (HyClone, Logan, Utah). On days 0, 2 and 4, GM-CSF and IL-4 (both purchased from R&D Systems, Minneapolis, Minn.) were added to the cultures at 1000 WHO unit/ml each. The cells were confirmed to be CD14^−CD1a^+ immature DC by FACS staining on day 6.
Calcium Mobilization Assay. Cells were loaded for 1 hour with 2 μM indo-1/AM dye (Molecular Probes, Eugene, Oreg.) in culture medium, then washed with 10 ml PBS and resuspended at 10^6/ml in HBSS containing 1% FBS. Cytosolic calcium responses were determined using a Photon Technology International (Lawrenceville, N.J.) fluorimeter, with excitation at 350 nm and dual emission at 400 and 490 nm. Alternatively, cells were loaded with 5 μg/ml Fluo-4 AM dye (Molecular Probes, Eugene, Oreg.), then washed and analyzed on a Fluorometric Imaging Plate Reader 384 (FLIPR^384 Molecular Devices, Sunnyvale, Calif.), with 505 nm excitation and 530 nm emission.
Immature and mature DC preparation. Immature DCs were derived by culturing CD14+ monocytes in T-175 cultured flasks at a density of 10^6 cells/ml in RPMI supplemented with 10% FBS. Recombinant human cytokines GM-CSF and IL-4 (final concentration 1000 and 500 U/ml, respectively) were added on day 0, 2, 4 and 6. Cells were harvested on day 6 as immature DCs and characterized for surface marker expression by flow cytometry. DC maturation was carried out by culturing day-6 immature DCs in RPMI-10% FBS supplemented with GM-CSF, IL-4 and 50 μg/ml polyIC (Sigma, St. Louis Mo.). After two more days of culture, cells were harvested as mature DCs and characterized by surface marker expression by flow cytometry.
Receptor signaling assay. For individual measurements, cells were loaded for 45 min at room temperature with 2 μM indo-1/AM (Invitrogen, Carlsbad Calif.) in culture medium, then washed with 10 ml PBS and resuspended at 10^6 cells/ml in HBSS containing 0.1% BSA. Cytosolic calcium levels were determined using a Photon Technology International fluorimeter (excitation at 350 nm, ratio of dual emission at 400 and 490 nm). For measuring calcium dose responses, cells were analyzed with a Fluorometric Imaging Plate Reader 384 (FLIPR^384) (Molecular Devices, Sunnyvale, Calif.). Cells were loaded for 1 hr at 37° C. with 5 μM fluo-4 in HBSS with 0.1% BSA, then washed, transferred to black-wall 96-well plates, and subsequently excited at 505 nm with emission recorded at 530 nm with a standard protocol provided by the manufacture. Cells were stimulated with agonists 20 s after the monitoring of fluorescence began. Data were analyzed and plotted in arbitrary units of fluorescence using Prism. To ensure that responses were specific to FPRL1, we utilized a selective small-molecule antagonist of human FPRL1, generated by ChemoCentryx, which was optimized from a high throughput compound library screening approach.
Background: Calcium assays in cells follow changes in intracellular calcium, usually with a dye or a luminescent sensor.

Assay [2] has as its system murine bone marrow neutrophils. Briefly: Calcium responses and chemotaxis in murine bone marrow neutrophils. The settings on record: murine bone marrow neutrophils (not shown). It is filed as cell-based, mouse.
Assay [3] addresses T1, CCR1 (Homo sapiens, UniProt P32246).
T1 sequence (P32246 1-355): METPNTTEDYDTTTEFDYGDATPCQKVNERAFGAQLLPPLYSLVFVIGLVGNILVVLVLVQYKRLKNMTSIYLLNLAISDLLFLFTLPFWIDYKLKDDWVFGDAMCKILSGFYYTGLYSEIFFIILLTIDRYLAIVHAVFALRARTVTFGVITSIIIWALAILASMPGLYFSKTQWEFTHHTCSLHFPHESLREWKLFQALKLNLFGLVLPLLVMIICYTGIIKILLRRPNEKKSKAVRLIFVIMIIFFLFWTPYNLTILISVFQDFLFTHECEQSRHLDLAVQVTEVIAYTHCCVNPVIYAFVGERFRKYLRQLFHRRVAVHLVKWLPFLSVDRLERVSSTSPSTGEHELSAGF
The assay can be described thus: Competition binding with 125I-MIP-1α on human monocytes. Further details: endogenous in cells; host or cells: human CD14+ monocytes from buffy coats. The method, then: Binding assay. Competition binding studies were conducted using monocytes, L1.2-CCR1 or L1.2-FPRL1 cells. Cells were incubated for 3 hr at 4° C. with ^125I-MIP-1α (final concentration ˜0.05 nM) or ^125I-WKYMVm (final concentration ˜0.01 nM) in buffer (25 mM HEPES, 140 mM NaCl, 1 mM CaCl2, 5 mM MgCl2 and 0.2% BSA, adjusted to pH 7.1) in the presence of increasing amounts of unlabeled chemokine. Reactions were aspirated onto PEI-treated GF/B glass filters using a cell harvester (Packard). Filters were washed twice (25 mM HEPES, 500 mM NaCl, 1 mM CaCl2, 5 mM MgCl2, adjusted to pH 7.1). Scintillant (MicroScint-10; 35 μl) was added to the filters and counted in a Packard Topcount scintillation counter. Data were analyzed and plotted using Prism (GraphPad Software, San Diego, Calif.).

Where no end group is shown, it is not given here.

On to MLWRRKIGPQMTLSHAAG [SHAAGtide], for which the calcium response entry in assay [1] (immature DC, undigested) was “much smaller calcium response”; in assay [1] (mature DC) it was “small amount of signaling activity”. Further, in assay [2], the “calcium responses and chemotaxis” value is “able to induce calcium responses and chemotaxis”. For the same molecule, the “inhibition of 125I-MIP-1α binding” value in assay [3] is “did not inhibit”.

B1: CCL23β Δ24: truncated form of CCL23β lacking the 24-residue N-terminal domain, beginning with the SHAAGtide insertion (protein, listed as Homo sapiens)
chain: MLWRRKIGPQMTLSHAAGFHATSADCCISYTPRSIPCSLLESYFETNSECSKPGVIFLTKKGRRFCANPSDKQVQVCMRMLKLDTRIKTRKN
As to B1, the calcium response entry in assay [1] (immature DC, undigested) is “strong calcium response”; in assay [1] (mature DC), “diminished”. In assay [2], the “calcium responses and chemotaxis” value is “able to induce calcium responses and chemotaxis”. Besides, the “inhibition of 125I-MIP-1α binding” value in assay [3] is “moderate competitors”.
